US20220072101A1, “HARNESSING INFLAMMATION TO TREAT NEURODEVELOPMENTAL DISORDERS” (President and Fellows of Harvard College, priority 2019, published 2022)
“Also recorded” adds a separate entry of the source.

Legend:
[1] = test system: Cntnap2, Fmr1, and Shank3 mutant mice; assay: Three-chamber social approach assay in monogenic mutant mice; assay type: in vivo, mouse; details: Cntnap2, Fmr1 and Shank3 mutant mice; LPS i.p.; 4 hours
Experimental: All experiments were performed according to Guide for the Care and Use of Laboratory Animals and were approved by the National Institutes of Health and the Committee on Animal Care at Massachusetts Institute of Technology. C57BL/6 were purchased from Taconic Biosciences for generating PBS and MIA offspring. Vgat-Cre (028862) were purchased from Jackson Laboratories and inbred. For monogenic experiments, C57BL/6, Cntnap2 (017482), Fmr1 (003025), and Shank3 (017688) mice were purchased from Jackson Laboratories and inbred after colonizing with SFB from donor mice. IL-17Ra^fl/fl and IL-17RaKO were previously described^24,25. All mice were males aged 2-5 months, unless otherwise specified.
Adult male mice were assayed for sociability using a three-chamber social approach assay. The arena was constructed of white acrylic (50 cm×35 cm×30 cm). Wire cups (Spectrum Diversified®) were placed in the back left and right corner of the arena beneath water-filled 1 L bottles (Nalgene®). On day 0, mice were habituated to the arena for 10 min. Immediately following habituation, mice were singly housed. On day 1 (Pre), mice were placed in the center of the arena and allowed to freely explore. Following 10 min, mice were confined to the center of the arena. An inanimate object (rubber stopper) or a male conspecific were placed beneath the wire cups. Placement of the inanimate object and social target were alternated. Mice were then allowed to freely explore the arena for 10 min. Interaction time was defined as time spent in the areas circumscribing the wire cups (<2 cm). Sociability was defined as interaction time with the social target divided by total interaction time and expressed as a percentage. For experiments involving LPS injections, mice were injected with either saline (Veh) or LPS ([…], i.p., L2630, Sigma) on day 2 (Test), four hours prior to testing. For the experiment assaying sociability 72 hrs following LPS injection, mice used for 4 hr LPS sociability experiments were tested for sociability again at 72 hrs. […]

[2] = test system: IL-17a, IFNγ, IL-6, TNFα; assay: ELISA of cytokines in plasma and brain lysate; assay type: in vivo, mouse
Experimental: Mice were put under general anesthesia by intraperitoneal injection of Ketamine (100 mg/kg, i.p.) and xylazine (10 mg/kg, i.p.). Blood was collected by retro-orbital puncture, using clean heparinized microhematocrit capillary tubes (Fisher Scientific®). Once the tube was withdrawn, slight pressure was applied on the eyelid with gauze to prevent further bleeding. All blood samples were centrifuged at 15,000 g for 3 min at room temperature. For quantification of cytokines in brain lysate, samples were disrupted in cold lysis buffer with protease inhibitor cocktail for 60 seconds using the Micro-Homogenizer (VWR International) and centrifuged for 30 min at 15,000×g to remove insoluble precipitates. All samples were stored at −80° C. until further analysis. Plasma and brain lysate cytokines concentrations were measured using an ELISA kit (Biolgened™), following the manufacturer's instructions.
After four hours of vehicle or LPS administration, mice were anesthetized by intraperitoneal injection of fatal plus (100 mg/kg). All blood samples were centrifuged at 10,000 g for 10 min at 4 C. All samples were stored at −80° C. until further analysis. Cytokines concentrations in plasma were measured using an ELISA kit (IFN-γ; 430804, TNF-α; 430904, IL-6; 431304, IL-17a; 432504, Biolegend®), following the manufacturer's instructions.

[3] = test system: MIA offspring; assay: Marble burying assay; assay type: in vivo, mouse; details: four hours after LPS
Experimental: On day 1, mice were tested for their baseline marble burying phenotype. On day 2, four hours prior to beginning the marble burying assay, mice were treated with either LPS or vehicle. Marble burying assay was carried out as described previously^8. Mice were placed into testing arenas (arena size: 40 cm×20 cm×30 cm, bedding depth: 3 cm) each containing 20 glass marbles (laid out in four rows of five marbles equidistant from one another). At the end of the 15 min exploration period mice were carefully removed from the testing cages and the number of marbles buried was recorded. The marble burying index was arbitrarily defined as the following: 1 for marbles covered >50% with bedding, 0.5 for marbles covered <50% with bedding, or 0 for anything less.

[4] = test system: S1DZ neurons; assay: In vivo electrophysiology, firing rate of S1DZ neurons in awake mice; set-up: species or system mouse
Experimental: Electrophysiological experiments were conducted in head-fixed mice trained to walk on a rotating running wheel. Prior to training, mice were implanted with custom crowns permitting head-fixing above the wheel and allowed to recover for one week before training. Mice were trained to walk on the wheel for three 10 min sessions daily for at least one week. Following training, mice were implanted with a multi-electrode array targeting the S1DZ and allowed to recover before testing. To assess IL-17a dependence of LPS-induced changes in neural activity, mice were injected i.p. with control antibodies or blocking antibody against IL-17a (1 mg/mouse), 30 min prior to i.p. vehicle or LPS injection. Baseline neural activity was measured while mice were running on the wheel immediately prior to the first injection. Following the first injection, mice were returned to their home cage. Post-injection (Test) neural activity during wheel running was measured 4 hrs after vehicle or LPS injection.
Custom multi-electrode array scaffolds (drive bodies) were designed using 3D CAD software (SolidWorks®) and printed in Accura 55 Plastic™ (American Precision Prototyping®) as described previously^31,32. […]
Firing rate was calculated across one second time windows during which animals were walking stably on the rotating wheel averaged across 25-50 trials per condition. […]

lipopolysaccharide [LPS]
sociability after LPS [1]: failed to restore sociability in mutant mice deficient for Cntnap2, Fmr1, and Shank3 | IL-17a in the brain ([2]; IFNγ KO MIA offspring, LPS treatment): no longer detectable | IL-17a and IFNγ levels in the brain ([2]; MIA offspring injected with LPS, brain lysate): elevated levels of IL-17a, but not IFNγ, in the brain | plasma levels of IFNγ, IL-6, TNFα and IL-17a ([2]; MIA offspring, LPS i.p.): increased plasma levels of inflammatory cytokines; also recorded: robust increase in plasma levels of IFNγ, IL-6, TNFα and IL-17a | plasma/blood levels of inflammatory cytokines (IL-17a, IFNγ) ([2]; PBS (control) offspring, LPS 50 μg/kg i.p.): insufficient to produce high levels of inflammatory cytokines; also recorded: failed to increase IL-17a and IFNγ levels in the blood | plasma levels of IFN-γ, IL-6, and TNF-α ([2]; PBS, MIA, WT and monogenic mutant mice (FIG. 23A), four hours after LPS): robust increase in plasma levels of IFN-γ, IL-6, and TNF-α | plasma/blood IL-17a, MIA offspring vs monogenic mutant mice and controls ([2]; four hours after LPS): did not induce comparable amounts of interleukin-17a (IL-17a) as in MIA offspring; also recorded: prominently upregulated in MIA offspring, but not in monogenic mutant mice or in control animals; also recorded: increase in IL-17a levels in the blood selectively in MIA offspring, but not in other monogenic mutant mice | marble burying behavior [3]: rescued an enhanced marble burying behavior | overall firing rate of S1DZ neurons ([4]; MIA offspring, 4 hrs after LPS): a decrease in overall firing rate was observed | firing rate in the S1DZ ([4]; control (PBS) offspring): Neither LPS nor IL-17a blocking antibody treatment changed the firing rate
